Data published in PubChem BioAssay AID651875 (NMMLSC, 2012).

System: AM2.2 cells FAP-GPR32, fluorogen binding, flow cytometry MCF
Experiment: fluorogen binding to FAP-tagged GPR32, dose response, counter-screen for beta2AR agonist internalization project, AM2.2 cells, flow cytometry, powder set 4 (AID 651875)

O=C(C1CCC(=O)N1S(=O)(=O)c1ccccc1)N1CCN(c2ccccn2)CC1 (stereo not given)
EC50: 49.6 nM

Cc1ccc(S(=O)(=O)N(C)CC(=O)N2CCN(c3ccccn3)CC2)cc1
EC50: 3.7 nM

CC(=O)Nc1ccc(S(=O)(=O)N2CCCCC2c2cccnc2)cc1 (stereo not given)
EC50: 15.6 nM

COc1ccccc1N1CCN(C(=O)CN(C)S(=O)(=O)c2ccc(C)cc2)CC1
EC50: 974 nM

O=C(CN(Cc1ccccc1)S(=O)(=O)c1ccc(Cl)cc1)N1CCN(c2ccccn2)CC1
EC50: 316 nM
